Measured values as given in PubChem BioAssay (NCI).
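Method: 48-hour compound exposure of cells in 96-well plates, five concentrations, linear interpolation of endpoints. The concentration for 50% growth inhibition is given as GI50. TGI denotes the concentration required for complete inhibition of growth.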

Columns and labels:
Assay in all cases: inhibition of tumour cell growth, NCI panel, 48 h
A498 renal = test system: A498 renal
A549 NSCLC = test system: A549 NSCLC
ACHN renal = test system: ACHN renal
BT-549 breast = test system: BT-549 breast
CAKI-1 renal = test system: CAKI-1 renal
CCRF-CEM leukemia = test system: CCRF-CEM leukemia
COLO 205 colon = test system: COLO 205 colon
DU-145 prostate = test system: DU-145 prostate
EKVX NSCLC = test system: EKVX NSCLC
HCC-2998 colon = test system: HCC-2998 colon
HCT-116 colon = test system: HCT-116 colon
HCT-15 colon = test system: HCT-15 colon
HL-60(TB) leukemia = test system: HL-60(TB) leukemia
HOP-62 NSCLC = test system: HOP-62 NSCLC
HOP-92 NSCLC = test system: HOP-92 NSCLC
HS 578T breast = test system: HS 578T breast
HT29 colon = test system: HT29 colon
IGROV1 ovarian = test system: IGROV1 ovarian
K-562 leukemia = test system: K-562 leukemia
KM12 colon = test system: KM12 colon
LOX IMVI melanoma = test system: LOX IMVI melanoma
M14 melanoma = test system: M14 melanoma
MALME-3M melanoma = test system: MALME-3M melanoma
MCF7 breast = test system: MCF7 breast
MDA-MB-231 breast = test system: MDA-MB-231 breast
MDA-MB-435 = test system: MDA-MB-435
MOLT-4 leukemia = test system: MOLT-4 leukemia
NCI-H226 lung = test system: NCI-H226 lung
NCI-H23 lung = test system: NCI-H23 lung
NCI-H460 lung = test system: NCI-H460 lung
NCI-H522 lung = test system: NCI-H522 lung
NCI/ADR-RES ovarian = test system: NCI/ADR-RES ovarian
OVCAR-3 ovarian = test system: OVCAR-3 ovarian
OVCAR-5 ovarian = test system: OVCAR-5 ovarian
OVCAR-8 ovarian = test system: OVCAR-8 ovarian
PC-3 prostate = test system: PC-3 prostate
RPMI-8226 leukemia = test system: RPMI-8226 leukemia
RXF 393 renal = test system: RXF 393 renal
SF-268 CNS = test system: SF-268 CNS
SF-295 CNS = test system: SF-295 CNS
SF-539 CNS = test system: SF-539 CNS
SK-MEL-2 melanoma = test system: SK-MEL-2 melanoma
SK-MEL-28 melanoma = test system: SK-MEL-28 melanoma
SK-MEL-5 melanoma = test system: SK-MEL-5 melanoma
SN12C renal = test system: SN12C renal
SNB-19 CNS = test system: SNB-19 CNS
SNB-75 CNS = test system: SNB-75 CNS
SR leukemia = test system: SR leukemia
SW-620 colon = test system: SW-620 colon
T-47D breast = test system: T-47D breast
TK-10 renal = test system: TK-10 renal
U251 CNS = test system: U251 CNS
UACC-257 melanoma = test system: UACC-257 melanoma
UACC-62 melanoma = test system: UACC-62 melanoma
UO-31 renal = test system: UO-31 renal

`O=C(N/N=C\c1ccc(N(CCCl)CCCl)cc1[N+](=O)[O-])c1cccnc1` was tested, and the GI50 (A498 renal) was over 100 µM, the TGI (A498 renal) was over 100 µM and the GI50 (A549 NSCLC) was over 100 µM. The TGI (A549 NSCLC) was over 100 µM, the GI50 (ACHN renal) was over 100 µM and the TGI (ACHN renal) was over 100 µM. The GI50 (BT-549 breast) was over 100 µM, the TGI (BT-549 breast) was over 100 µM and the GI50 (CAKI-1 renal) was over 100 µM. The TGI (CAKI-1 renal) was over 100 µM, the GI50 (CCRF-CEM leukemia) was over 100 µM and the TGI (CCRF-CEM leukemia) was over 100 µM. For the same compound, the GI50 (COLO 205 colon) was over 100 µM, the TGI (COLO 205 colon) was over 100 µM and the GI50 (DU-145 prostate) was over 100 µM. It also gave a TGI (DU-145 prostate) of over 100 µM, a GI50 (EKVX NSCLC) of over 100 µM and a TGI (EKVX NSCLC) of over 100 µM. The GI50 (HCC-2998 colon) was over 100 µM, the TGI (HCC-2998 colon) was over 100 µM and the GI50 (HCT-116 colon) was over 100 µM. The TGI (HCT-116 colon) was over 100 µM, the GI50 (HCT-15 colon) was over 100 µM and the TGI (HCT-15 colon) was over 100 µM. For the same compound, the GI50 (HL-60(TB) leukemia) was over 100 µM, the TGI (HL-60(TB) leukemia) was over 100 µM and the GI50 (HOP-62 NSCLC) was over 100 µM. It also gave a TGI (HOP-62 NSCLC) of over 100 µM, a GI50 (HOP-92 NSCLC) of over 100 µM and a TGI (HOP-92 NSCLC) of over 100 µM. It also gave a GI50 (HS 578T breast) of over 100 µM, a TGI (HS 578T breast) of over 100 µM and a GI50 (HT29 colon) of over 100 µM. The TGI (HT29 colon) was over 100 µM, the GI50 (IGROV1 ovarian) was over 100 µM and the TGI (IGROV1 ovarian) was over 100 µM. For the same compound, the GI50 (K-562 leukemia) was over 100 µM, the TGI (K-562 leukemia) was over 100 µM and the GI50 (KM12 colon) was over 100 µM. For the same compound, the TGI (KM12 colon) was over 100 µM, the GI50 (LOX IMVI melanoma) was over 100 µM and the TGI (LOX IMVI melanoma) was over 100 µM. For the same compound, the GI50 (M14 melanoma) was over 100 µM, the TGI (M14 melanoma) was over 100 µM and the GI50 (MALME-3M melanoma) was over 100 µM. It also gave a TGI (MALME-3M melanoma) of over 100 µM, a GI50 (MCF7 breast) of over 100 µM and a TGI (MCF7 breast) of over 100 µM. The GI50 (MDA-MB-231 breast) was over 100 µM, the TGI (MDA-MB-231 breast) was over 100 µM and the GI50 (MDA-MB-435) was over 100 µM. For the same compound, the TGI (MDA-MB-435) was over 100 µM, the GI50 (MOLT-4 leukemia) was over 100 µM and the TGI (MOLT-4 leukemia) was over 100 µM. It also gave a GI50 (NCI-H226 lung) of over 100 µM, a TGI (NCI-H226 lung) of over 100 µM and a GI50 (NCI-H23 lung) of over 100 µM. The TGI (NCI-H23 lung) was over 100 µM, the GI50 (NCI-H460 lung) was over 100 µM and the TGI (NCI-H460 lung) was over 100 µM. It also gave a GI50 (NCI-H522 lung) of over 100 µM, a TGI (NCI-H522 lung) of over 100 µM and a GI50 (NCI/ADR-RES ovarian) of over 100 µM. It also gave a TGI (NCI/ADR-RES ovarian) of over 100 µM, a GI50 (OVCAR-3 ovarian) of over 100 µM and a TGI (OVCAR-3 ovarian) of over 100 µM. The GI50 (OVCAR-5 ovarian) was over 100 µM, the TGI (OVCAR-5 ovarian) was over 100 µM and the GI50 (OVCAR-8 ovarian) was over 100 µM. It also gave a TGI (OVCAR-8 ovarian) of over 100 µM, a GI50 (PC-3 prostate) of over 100 µM and a TGI (PC-3 prostate) of over 100 µM. The GI50 (RPMI-8226 leukemia) was over 100 µM, the TGI (RPMI-8226 leukemia) was over 100 µM and the GI50 (RXF 393 renal) was over 100 µM. The TGI (RXF 393 renal) was over 100 µM, the GI50 (SF-268 CNS) was over 100 µM and the TGI (SF-268 CNS) was over 100 µM. The GI50 (SF-295 CNS) was over 100 µM, the TGI (SF-295 CNS) was over 100 µM and the GI50 (SF-539 CNS) was over 100 µM. It also gave a TGI (SF-539 CNS) of over 100 µM, a GI50 (SK-MEL-2 melanoma) of over 100 µM and a TGI (SK-MEL-2 melanoma) of over 100 µM. For the same compound, the GI50 (SK-MEL-28 melanoma) was over 100 µM, the TGI (SK-MEL-28 melanoma) was over 100 µM and the GI50 (SK-MEL-5 melanoma) was over 100 µM. It also gave a TGI (SK-MEL-5 melanoma) of over 100 µM, a GI50 (SN12C renal) of over 100 µM and a TGI (SN12C renal) of over 100 µM. It also gave a GI50 (SNB-19 CNS) of over 100 µM, a TGI (SNB-19 CNS) of over 100 µM and a GI50 (SNB-75 CNS) of over 100 µM. For the same compound, the TGI (SNB-75 CNS) was over 100 µM, the GI50 (SR leukemia) was over 100 µM and the TGI (SR leukemia) was over 100 µM. For the same compound, the GI50 (SW-620 colon) was over 100 µM, the TGI (SW-620 colon) was over 100 µM and the GI50 (T-47D breast) was over 100 µM. It also gave a TGI (T-47D breast) of over 100 µM, a GI50 (TK-10 renal) of over 100 µM and a TGI (TK-10 renal) of over 100 µM. For the same compound, the GI50 (U251 CNS) was over 100 µM, the TGI (U251 CNS) was over 100 µM and the GI50 (UACC-257 melanoma) was over 100 µM. The TGI (UACC-257 melanoma) was over 100 µM, the GI50 (UACC-62 melanoma) was over 100 µM and the TGI (UACC-62 melanoma) was over 100 µM. It also gave a GI50 (UO-31 renal) of over 100 µM and a TGI (UO-31 renal) of over 100 µM.
